Numbered stars: 1 amine (or outer) side, 2 acyl side, 3 side chain; on linkers, the order of the positions; unused ones are H or OH. Bridge positions count the residues as written; N and C are the ends. Square brackets hold non-standard residues; d marks the D form. Peptide text beside a SMILES is read from it. CO = O=C([*:1])[*:2]; Nlys = NCCCCNCC(=O)O
Legend:
Type in all cases: biochemical
Settings in all cases: 1 mM, but not 0.1 mM; Figure 7
[1] = biological target: T1, Abl (Homo sapiens, UniProt P00519); test: PhosphoSens CSox-based kinase assay, Abl
T1 construct: purchased Carna 08-001
Procedure: (§1) Kinase activity was measured using the PhosphoSenstechnology (AssayQuant Technologies Inc., Marlborough, MA) as detailed in the Supporting Information. […]
(§2) Visabron c (4-4) safety by in vitro evaluation using PhosphoSens - CSox based kinase assays:
(§3) A powerful method was used to measure the activity of recombinant protein kinases using a homogeneous and continuous (kinetic) format, where the level of chelation-enhanced fluorescence (CHEF) that is directly proportional to the amount of phosphorylated, real-time sensors consisting of sulfonamido-oxine (Sox) chromophore, linked to a peptide or protein substrates of selective kinases 6. […]
(§4) Kinase activity measurements: Kinase activity was measured continuously using the PhosphoSens® technology (AssayQuant Technologies Inc., Marlborough, MA) according to the manufacturers’ recommendations. This one-step homogeneous assay format uses chelation -enhanced fluorescence via optimized substrate sensors containing the unnatural fluorogenic amino -acid Sox. […]
(§5) Final reaction conditions : Protein kinase activity was determined in 54 mM HEPES, pH 7.5, 1 mM ATP, 1.2 mM DTT, 0.012% Brij-35, 0.52 mM EGTA, 10 mM MgCl2, 1% glycerol, 0.2mg/ml BSA, and 15 μM Sox -based sensor. […]

[2] = biological target: T2, LynA (Homo sapiens, UniProt P07948); test: PhosphoSens CSox-based kinase assay, LynA
T2 construct: purchased Carna 08-171
Procedure: as §1, §2, §3, §4, §5

[3] = biological target: T3, C-Raf (Homo sapiens, UniProt P04049, Y340D/Y341D); test: PhosphoSens CSox-based kinase assay, C-Raf
T3 construct: purchased Thermo PV3805
Procedure: as §1, §2, §3, §4, §5

Measured: inhibition at 1000 µM

T2 sequence (P07948 whole entry): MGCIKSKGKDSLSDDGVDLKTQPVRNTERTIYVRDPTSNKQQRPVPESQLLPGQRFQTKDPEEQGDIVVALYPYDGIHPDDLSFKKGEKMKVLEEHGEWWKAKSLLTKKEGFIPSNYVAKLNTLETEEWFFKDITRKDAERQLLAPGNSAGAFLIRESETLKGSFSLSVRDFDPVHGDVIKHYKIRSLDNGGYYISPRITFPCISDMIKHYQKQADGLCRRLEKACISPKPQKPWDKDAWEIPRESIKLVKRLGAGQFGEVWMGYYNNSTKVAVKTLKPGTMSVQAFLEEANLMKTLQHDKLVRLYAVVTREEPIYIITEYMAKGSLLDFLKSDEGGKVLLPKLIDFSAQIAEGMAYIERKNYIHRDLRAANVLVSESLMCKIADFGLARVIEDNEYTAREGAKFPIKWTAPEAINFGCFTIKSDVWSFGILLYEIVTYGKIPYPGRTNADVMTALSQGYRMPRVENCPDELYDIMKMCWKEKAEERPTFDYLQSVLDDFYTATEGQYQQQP
T1 sequence (P00519 whole entry): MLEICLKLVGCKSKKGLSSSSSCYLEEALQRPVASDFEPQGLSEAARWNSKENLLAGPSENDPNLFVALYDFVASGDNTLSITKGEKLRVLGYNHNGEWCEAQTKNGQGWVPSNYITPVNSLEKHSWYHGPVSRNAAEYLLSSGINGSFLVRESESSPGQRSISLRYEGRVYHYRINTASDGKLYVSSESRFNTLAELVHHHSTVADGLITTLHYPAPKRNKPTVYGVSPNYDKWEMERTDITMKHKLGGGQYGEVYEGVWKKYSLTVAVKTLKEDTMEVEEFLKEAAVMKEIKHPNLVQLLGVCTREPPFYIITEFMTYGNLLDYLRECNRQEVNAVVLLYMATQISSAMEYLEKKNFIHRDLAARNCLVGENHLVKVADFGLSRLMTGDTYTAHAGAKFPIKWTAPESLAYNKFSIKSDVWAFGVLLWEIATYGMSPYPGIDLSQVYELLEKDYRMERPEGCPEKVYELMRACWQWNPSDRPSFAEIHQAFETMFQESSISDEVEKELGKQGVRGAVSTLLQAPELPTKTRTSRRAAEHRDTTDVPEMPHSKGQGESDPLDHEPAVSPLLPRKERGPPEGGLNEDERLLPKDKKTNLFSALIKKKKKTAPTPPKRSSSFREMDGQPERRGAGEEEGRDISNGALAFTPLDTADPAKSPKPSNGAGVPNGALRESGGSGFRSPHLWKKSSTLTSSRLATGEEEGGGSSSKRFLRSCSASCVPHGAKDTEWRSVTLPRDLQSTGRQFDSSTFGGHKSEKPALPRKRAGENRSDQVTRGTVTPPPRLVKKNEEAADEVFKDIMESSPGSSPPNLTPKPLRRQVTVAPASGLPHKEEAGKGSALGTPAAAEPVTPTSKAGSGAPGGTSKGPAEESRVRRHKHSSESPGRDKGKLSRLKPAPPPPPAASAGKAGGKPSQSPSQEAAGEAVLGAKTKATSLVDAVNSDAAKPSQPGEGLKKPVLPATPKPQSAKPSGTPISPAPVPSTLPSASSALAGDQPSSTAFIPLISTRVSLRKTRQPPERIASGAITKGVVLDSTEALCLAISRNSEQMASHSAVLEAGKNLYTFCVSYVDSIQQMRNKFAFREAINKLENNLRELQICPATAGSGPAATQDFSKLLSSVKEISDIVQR
T3 sequence (P04049 whole entry Y340D/Y341D): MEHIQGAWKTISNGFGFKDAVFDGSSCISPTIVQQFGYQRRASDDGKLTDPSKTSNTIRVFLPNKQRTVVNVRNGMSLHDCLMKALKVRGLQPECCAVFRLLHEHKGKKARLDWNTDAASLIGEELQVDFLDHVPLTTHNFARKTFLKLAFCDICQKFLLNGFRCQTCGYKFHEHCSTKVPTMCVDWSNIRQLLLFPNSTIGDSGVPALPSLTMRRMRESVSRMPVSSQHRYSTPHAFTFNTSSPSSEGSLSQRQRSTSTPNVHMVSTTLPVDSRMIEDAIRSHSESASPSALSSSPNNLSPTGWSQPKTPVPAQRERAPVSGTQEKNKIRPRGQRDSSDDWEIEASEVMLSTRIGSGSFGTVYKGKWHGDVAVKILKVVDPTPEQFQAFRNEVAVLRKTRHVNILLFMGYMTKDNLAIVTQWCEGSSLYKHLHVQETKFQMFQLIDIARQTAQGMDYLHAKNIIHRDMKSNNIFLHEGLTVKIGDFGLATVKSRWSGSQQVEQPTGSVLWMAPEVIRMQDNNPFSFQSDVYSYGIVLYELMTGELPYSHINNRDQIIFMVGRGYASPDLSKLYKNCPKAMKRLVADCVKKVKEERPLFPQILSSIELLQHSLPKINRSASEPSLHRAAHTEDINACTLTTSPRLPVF

CSCC[C@@H]1NC(=O)[C@H]([C@@H](C)O)NC(=O)CN(C(=O)[C@@H](N)CCCCN)CCCCNC(=O)NCCCCN(CC(=O)N[C@@H](CC(C)C)C(N)=O)C(=O)[C@H](CC(=O)O)NC(=O)[C@H](CC(C)C)NC1=O [visabron c (4–4)] (H-K[Nlys]TMLD[Nlys]L-NH2; linker 2-7 via CO)
25 to 40%: [1] | [2] | [3]

— publication PMC8717366, “Synthesis and Pharmacological Characterization of Visabron, a Backbone Cyclic Peptide Dual Antagonist of α4β1 (VLA-4)/α9β1 Integrin for Therapy of Multiple Sclerosis” (JACS Au, 2021)
